Values of other authors as cited in patent publication US20080274094A1, “Molecular Complex Comprising Arbutine, Ascorbic Acid, Oleuropeina or Its Derivatives Thereof and Related Uses In Medical Field” (MED CARE S.R.L., priority 2005, published 2008).

Key:
[1] = tested on: cultured human melanocytes; details: Pigment Cell Res. 1998; mechanism other than induction of tyrosinase activity
[2] = tested on: TNF alpha receptors; details: Biochem Pharmacol 1999, Mancini et al.

| Compound | pigmentation of cultured human melanocytes [1] | effect on TNF alpha receptors [2] |
| --- | --- | --- |
| OC[C@H]1O[C@@H](Oc2ccc(O)cc2)[C@H](O)[C@@H](O)[C@@H]1O [Arbutin] | increases the pigmentation | – |
| Cc1ccc(C(=O)Nc2ccc(S(=O)(=O)O)c3cc(S(=O)(=O)O)cc(S(=O)(=O)O)c23)cc1NC(=O)c1cccc(NC(=O)Nc2cccc(C(=O)Nc3cc(C(=O)Nc4ccc(S(=O)(=O)O)c5cc(S(=O)(=O)O)cc(S(=O)(=O)O)c45)ccc3C)c2)c1 [suramin] | – | inhibitory effect |
